Data on four molecules can be found in ChEMBL document CHEMBL4308894, “Synthesis and evaluation of biological activity for dual-acting antibiotics on the basis of azithromycin and glycopeptides” (Bioorg Med Chem Lett, 2019).

≈ marks a conversion by molar mass, not a printed value. Calls of active or inactive are those of the source. The rule behind the calls is not given here.

The test system of experiment [1] is Enterococcus faecium. Briefly: Antibacterial activity against Enterococcus faecium isolate 569 by micro dilution method. The experiment is classed as functional.
In experiment [2] the test system is Staphylococcus aureus. Briefly: Antibacterial activity against Staphylococcus aureus isolate 3797 by micro dilution method. The format is functional.
The test system of experiment [3] is Staphylococcus aureus. Briefly: Antibacterial activity against Staphylococcus aureus isolate 3798 by micro dilution method. The experiment is classed as functional.
Experiment [4] concerns Klebsiella pneumoniae. Briefly: Antibacterial activity against Klebsiella pneumoniae ATCC 13883 by micro dilution method. The experiment is classed as functional.
In experiment [5] the test system is Streptococcus pneumoniae. As to the kind of experiment: Antibacterial activity against Streptococcus pneumoniae ATCC 49619 by micro dilution method. The format is functional.
The subject of experiment [6] is Staphylococcus aureus. As to the kind of experiment: Antibacterial activity against Staphylococcus aureus isolate 10 by micro dilution method. The format is functional.
Experiment [7] relates to Enterococcus gallinarum. As to the kind of experiment: Antibacterial activity against Streptococcus gallinarum ATCC 35038 by micro dilution method. The format is functional.
The subject of experiment [8] is Staphylococcus epidermidis. Briefly: Antibacterial activity against Staphylococcus epidermidis isolate 533 by micro dilution method. The format is functional.
In experiment [9] the test system is Escherichia coli. As to the kind of experiment: Antibacterial activity against Escherichia coli ATCC 25922 by micro dilution method. The format is functional.
Experiment [10] has as its system Enterococcus faecium. Briefly: Antibacterial activity against Enterococcus faecium isolate 568 by micro dilution method. The format is functional.
In experiment [11] the test system is Enterococcus faecalis. As to the kind of experiment: Antibacterial activity against Enterococcus faecalis isolate 560 by micro dilution method. The experiment is classed as functional.
In experiment [12] the test system is Staphylococcus aureus. Briefly: Antibacterial activity against Staphylococcus aureus ATCC 25923 by micro dilution method. The format is functional.
Experiment [13] relates to Staphylococcus aureus. As to the kind of experiment: Antibacterial activity against Staphylococcus aureus isolate 1025 by micro dilution method. The experiment is classed as functional.
Experiment [14] concerns Escherichia coli. As to the kind of experiment: Induction of translation arrest in tolC-deficient Escherichia coli harboring pRFPCER-TrpL2A assessed as increase in pRFPCER-TrpL2A reporter activity at 10 mg/ml after overnight incubation by dual fluorescent-reporter gene assay. The format is functional, organism-based. Background: Reporter assays use an easily measured gene product as a stand-in for the process of interest.

Experiment [15] has as its system Salmonella typhimurium. As to the kind of experiment: Antibacterial activity against Salmonella choleraesuis ATCC 14028 by micro dilution method. The format is functional, Salmonella enterica subsp. enterica serovar Typhimurium. Conditions: Salmonella enterica.
Experiment [16] relates to Streptococcus agalactiae. Briefly: Antibacterial activity against Streptococcus agalactiae isolate 52 by micro dilution method. The format is functional.

With `CC[C@H]1OC(=O)[C@H](C)[C@@H](O[C@H]2C[C@@](C)(OC)[C@@H](OC(=O)NCCCNC(=O)[C@H]3NC(=O)[C@H]4NC(=O)[C@H](NC(=O)[C@@H]5NC(=O)[C@H](CC(N)=O)NC(=O)[C@H](NC(=O)[C@@H](CC(C)C)NC)[C@H](O)c6ccc(c(Cl)c6)Oc6cc5cc(c6O[C@@H]5O[C@H](CO)[C@@H](O)[C@H](O)[C@H]5O[C@H]5C[C@](C)(N)[C@H](O)[C@H](C)O5)Oc5ccc(cc5Cl)[C@H]4O[C@H]4C[C@](C)(N)[C@@H](O)[C@H](C)O4)c4ccc(O)c(c4)-c4c(O)cc(O)cc43)[C@H](C)O2)[C@H](C)[C@@H](O[C@@H]2O[C@H](C)C[C@H](N(C)C)[C@H]2O)[C@](C)(O)C[C@@H](C)CN(C)[C@H](C)[C@H]2OC(=O)O[C@]21C`, the MIC (commonly the lowest concentration found to suppress growth) in experiment [1] was 4 µg/mL (≈ 1.63 µM); in experiment [2] it was 4 µg/mL (≈ 1.63 µM); in experiment [3], 4 µg/mL (≈ 1.63 µM); in [4], above 32 µg/mL; in experiment [5], 1 µg/mL (≈ 0.408 µM); in experiment [6], 0.06 µg/mL (≈ 0.0245 µM). The MIC in experiment [7] is 2 µg/mL (≈ 0.816 µM); in [8], 1 µg/mL (≈ 0.408 µM); in experiment [9], above 32 µg/mL; in experiment [10], 0.5 µg/mL (≈ 0.204 µM); in experiment [11], 8 µg/mL (≈ 3.27 µM); in experiment [12], 1 µg/mL (≈ 0.408 µM). In addition, the MIC in experiment [13] is 16 µg/mL (≈ 6.53 µM); in experiment [15], above 32 µg/mL; in experiment [16], 4 µg/mL (≈ 1.63 µM). Further, in [14], the outcome was inactive.

As for `CC[C@H]1OC(=O)[C@H](C)[C@@H](O[C@H]2C[C@@](C)(OC)[C@@H](O)[C@H](C)O2)[C@H](C)[C@@H](O[C@@H]2O[C@H](C)C[C@H](N(C)C)[C@H]2O)[C@](C)(O)C[C@@H](C)C(=O)[C@H](C)[C@@H](O)[C@]1(C)O`, the result in experiment [14] was Active.

For the molecule `CC[C@H]1OC(=O)[C@H](C)[C@@H](O[C@H]2C[C@@](C)(OC)[C@@H](OC(=O)NCCNC(=O)[C@H]3NC(=O)[C@H]4NC(=O)[C@H](NC(=O)[C@@H]5NC(=O)C6NC(=O)[C@@H](Cc7ccc(c(Cl)c7)Oc7cc5cc(c7O)Oc5ccc(cc5Cl)[C@H]4O)NC(=O)[C@H](N)c4ccc(O)c(c4)Oc4cc(O)cc6c4)c4ccc(O)c(c4)-c4c(O)cc(O)cc43)[C@H](C)O2)[C@H](C)[C@@H](O[C@@H]2O[C@H](C)C[C@H](N(C)C)[C@H]2O)[C@](C)(O)C[C@@H](C)CN(C)[C@H](C)[C@H]2OC(=O)O[C@]21C`, the MIC in [1] was 8 µg/mL (≈ 3.92 µM); in [2], 1 µg/mL (≈ 0.49 µM); in experiment [3] it was 32 µg/mL (≈ 15.7 µM); in experiment [4], above 32 µg/mL; in experiment [5] it was 0.5 µg/mL (≈ 0.245 µM); in [6] it was 0.06 µg/mL (≈ 0.0294 µM). The MIC was 2 µg/mL (≈ 0.979 µM) in experiment [7]; 0.5 µg/mL (≈ 0.245 µM) in experiment [8]; above 32 µg/mL in experiment [9]; 0.13 µg/mL (≈ 0.0637 µM) in experiment [10]; 16 µg/mL (≈ 7.84 µM) in experiment [11]; 1 µg/mL (≈ 0.49 µM) in experiment [12]. Also, the MIC in experiment [13] was above 32 µg/mL; in experiment [15], above 32 µg/mL; in [16], 32 µg/mL (≈ 15.7 µM). In addition, in experiment [14], the outcome was inactive.

As for `CC[C@H]1OC(=O)[C@H](C)[C@@H](O[C@H]2C[C@@](C)(OC)[C@@H](OC(=O)NCCCNC(=O)[C@H]3NC(=O)[C@H]4NC(=O)[C@H](NC(=O)[C@@H]5NC(=O)[C@H](CC(N)=O)NC(=O)[C@H](NC(=O)[C@@H](CC(C)C)NC)[C@H](O)c6ccc(c(Cl)c6)Oc6cc5cc(c6O[C@@H]5O[C@H](CO)[C@@H](O)[C@H](O)[C@H]5O[C@H]5C[C@](C)(N)[C@H](O)[C@H](C)O5)Oc5ccc(cc5Cl)[C@H]4O)c4ccc(O)c(c4)-c4c(O)cc(O)cc43)[C@H](C)O2)[C@H](C)[C@@H](O[C@@H]2O[C@H](C)C[C@H](N(C)C)[C@H]2O)[C@](C)(O)C[C@@H](C)CN(C)[C@H](C)[C@H]2OC(=O)O[C@]21C`, the MIC in experiment [1] is above 32 µg/mL; in experiment [2] it was 4 µg/mL (≈ 1.73 µM); in experiment [3] it was above 32 µg/mL; in experiment [4], above 32 µg/mL; in experiment [5] it was 1 µg/mL (≈ 0.434 µM); in experiment [6] it was 1 µg/mL (≈ 0.434 µM). Further, the MIC is 4 µg/mL (≈ 1.73 µM) in experiment [7]; 2 µg/mL (≈ 0.867 µM) in experiment [8]; above 32 µg/mL in experiment [9]; 1 µg/mL (≈ 0.434 µM) in experiment [10]; 32 µg/mL (≈ 13.9 µM) in experiment [11]; 2 µg/mL (≈ 0.867 µM) in experiment [12]. For the same molecule, the MIC was above 32 µg/mL in experiment [13], above 32 µg/mL in experiment [15] and 32 µg/mL (≈ 13.9 µM) in experiment [16]. The outcome in experiment [14] was inactive.
